From paper PMC10509784 (RSC Advances, 2023) come the findings set out here.

Where two headings read alike, the source gives them in different places.

Common to all, as to format: cell-based
For one assay, the system named is MCF-7. Briefly: MTT cytotoxicity on MCF-7 breast cancer cells.
For the next assay, the system named is MDA-MB 231. Put plainly: MTT cytotoxicity on MDA-MB 231 breast cancer cells. The note with it: Homo sapiens, MDA-MB-231, read-out: MDA-MB 231 IC50.
A further assay deals with Wi-38. Briefly: MTT cytotoxicity on normal fibroblasts. The following applies: Homo sapiens, WI-38, read-out: Wi-38 IC50.
Assay [1] concerns Bcl-2. Put plainly: Bcl-2 expression in treated MCF-7 cells. The note with it: for Relative fold change in Bcl-2 expression: MCF-7, mean ± SEM; for diminished levels of Bcl-2: tested cancer cell lines, MCF-7 and MDA-MB 231.
The test system of assay [2] is P53. Put plainly: Quantitative detection of P53 expression in treated MCF-7 cells. The note with it: MCF-7, vs control, mean ± SEM.
The subject of assay [3] is caspase 3/7. Put plainly: Caspase 3/7 activation assay in MCF-7 cells. The following applies: for Relative fold activation of caspase 3/7: MCF-7 treated with IC50, mean ± SEM; for activation of caspase 3/7: treated breast cancer cell lines (MCF-7 and MDA-MB 231), IC50s.
The test system of assay [4] is BAX. Put plainly: BAX expression in treated MCF-7 cells. The following applies: for Relative fold change in BAX expression: MCF-7, mean ± SEM; for overexpression of apoptosis regulator BAX: tested cancer cell lines, MCF-7 and MDA-MB 231.
The test system of assay [5] is Bcl-2. Briefly: Bcl-2 expression in treated MDA-MB 231 cells. The following applies: MDA-MB 231, mean ± SEM.
In assay [6] the test system is BAX. Put plainly: BAX expression in treated MDA-MB 231 cells. The note with it: MDA-MB 231, mean ± SEM.
Assay [7] relates to P53. Briefly: Quantitative detection of P53 expression in treated MDA-MB 231 cells. The following applies: MDA-MB 231, vs control, mean ± SEM.
Assay [8] has as its system caspase 3/7. Briefly: Caspase 3/7 activation assay in MDA-MB 231 cells. The following applies: MDA-MB 231 treated with IC50, mean ± SEM.
[9] abbreviates: Homo sapiens, MCF7, read-out: MCF-7 IC50, MTT, mean ± SEM.
The mark [10] stands for this setting: read-out: MCF-7 IC50, MTT, mean ± SEM.

In the case of `CCOC(=O)c1ccc(NC(=O)C(c2ccccc2)N(C(=O)C(F)(F)F)c2ccccc2)cc1` (centres unmarked) [Compound 2, Ethyl-4-(-phenyl-2-(2,2,2-trifluoro-N-phenylacetamido)acetamido)benzoate], the IC50 in the assay with MCF-7 (setting [9]) is 369 ± 14 nM; with MDA-MB 231 it was 472 ± 13 nM; in the assay on Wi-38 it was 147 ± 20 nM.

Consider `CCOC(=O)c1ccc(NC(=O)C(c2ccccc2)N(C(=O)c2ccccc2C)c2ccccc2)cc1` (centres unmarked) [Compound 3, Ethyl-4-(2-(2-methyl-N-phenylbenzamido)-2-phenylacetamido)benzoate], for which, in the assay on Bcl-2 [1], the “Relative fold change in Bcl-2 expression” value was determined as 0.217 ± 0.006 fold and the “diminished levels of Bcl-2” value is 0.13–0.49 folds. The “Relative fold change in the P53 expression” value with P53 [2] came out at 4.110 ± 0.1014 fold. The concentration for half-maximal inhibition (IC50) with MCF-7 (setting [9]) was around 80 nM. Besides, the half-maximal inhibitory concentration (IC50) in the assay on MCF-7 (setting [10]) was determined as 86 ± 16 nM. Besides, in the assay with MDA-MB 231, the concentration for half-maximal inhibition (IC50) is 306 ± 14 nM. Further, the IC50 in the assay with Wi-38 turned out to be 1330 ± 84 nM. Besides, in the assay on caspase 3/7 [3], the “Relative fold activation of caspase 3/7” value is 3.470 ± 0.0485 fold and the “activation of caspase 3/7” value is reported as 2.6–4.1 folds. Further, in the assay with BAX [4], the “Relative fold change in BAX expression” value is recorded as 2.448 ± 0.057 fold and the “overexpression of apoptosis regulator BAX” value (from here on “overexpression”) is reported as 2.3–3.3 folds.

Consider `CCOC(=O)c1ccc(NC(=O)C(c2ccccc2)N(C(=O)c2ccccc2I)c2ccccc2)cc1` (centres unmarked) [Compound 4, Ethyl-4-(2-(2-iodo-N-phenylbenzamido)-2-phenylacetamido)benzoate], for which the entries for the “Relative fold change in Bcl-2 expression” value with Bcl-2 [5] and in the assay on Bcl-2 [1] were 0.496 ± 0.005 fold and 0.233 ± 0.0017 fold, respectively. In addition, the “diminished levels of Bcl-2” value in the assay on Bcl-2 [1] is 0.13–0.49 folds. Besides, the “Relative fold change in the P53 expression” value in the assay with P53 [2] was found to be 4.137 ± 0.0407 fold; in the assay with P53 [7], 3.309 ± 0.110 fold. The IC50 in the assay on MCF-7 (setting [9]) came out at 96 ± 7 nM; in the assay with MDA-MB 231, 188 ± 44 nM; with Wi-38 it was 418 ± 33 nM. For the same compound, the results for the “Relative fold change in BAX expression” value in the assay on BAX [6] and with BAX [4] were 2.338 ± 0.021 fold and 2.747 ± 0.1285 fold, respectively. Moreover, the entries for the “Relative fold activation of caspase 3/7” value with caspase 3/7 [3] and in the assay on caspase 3/7 [8] were 3.113 ± 0.1012 fold and 2.618 ± 0.1615 fold, respectively. Further, the “activation of caspase 3/7” value in the assay on caspase 3/7 [3] is 2.6–4.1 folds. The “overexpression” value in the assay with BAX [4] is reported as 2.3–3.3 folds.

In the case of `CCOC(=O)c1ccc(NC(=O)C(c2ccccc2)N(C(=O)c2ccccc2[N+](=O)[O-])c2ccccc2)cc1` (centres unmarked) [Compound 5, Ethyl-4-(2-(2-nitro-N-phenylbenzamido)-2-phenylacetamido)benzoate], the figures for the 50% inhibitory concentration (IC50) in the assay on MCF-7 (setting [9]), with MDA-MB 231 and with Wi-38 were 229 ± 42 nM, 302 ± 24 nM and 570 ± 72 nM, respectively.

Consider `CCOC(=O)c1ccc(NC(=O)C(c2ccccc2)N(C(=O)c2cc([N+](=O)[O-])cc([N+](=O)[O-])c2)c2ccccc2)cc1` (centres unmarked) [Compound 6, Ethyl-4-(2-(3,5-dinitro-N-phenylbenzamido)-2-phenylacetamido)benzoate], for which the IC50 was determined as 143 ± 16 nM in the assay with MCF-7 (setting [9]), 370 ± 94 nM with MDA-MB 231 and 538 ± 25 nM in the assay on Wi-38.

On to `CCOC(=O)c1ccc(N2C(=O)C(c3ccccc3)N(c3ccccc3)C2=O)cc1` (centres unmarked) [Compound 8, Ethyl-4-(2,5-dioxo-3,4-diphenylimidazolidin-1-yl)benzoate], for which the figures for the “Relative fold change in Bcl-2 expression” value with Bcl-2 [5] and in the assay on Bcl-2 [1] were 0.454 ± 0.010 fold and 0.163 ± 0.0035 fold, respectively. In the assay with Bcl-2 [1], the “diminished levels of Bcl-2” value is recorded as 0.13–0.49 folds. Moreover, the results for the “Relative fold change in the P53 expression” value in the assay on P53 [2] and in the assay on P53 [7] were 4.810 ± 0.1014 fold and 3.733 ± 0.023 fold, respectively. For the same compound, the half-inhibitory concentration (IC50) in the assay with MCF-7 (setting [9]) was 78 ± 72 nM; in the assay on MDA-MB 231, 146 ± 34 nM; in the assay on Wi-38 it was 953 ± 37 nM. The results for the “Relative fold change in BAX expression” value in the assay with BAX [6] and in the assay with BAX [4] were 2.479 ± 0.030 fold and 3.195 ± 0.082 fold, respectively. Moreover, the “Relative fold activation of caspase 3/7” value in the assay with caspase 3/7 [3] was 3.763 ± 0.011 fold; in the assay with caspase 3/7 [8] it was 2.945 ± 0.0885 fold. In addition, in the assay with caspase 3/7 [3], the “activation of caspase 3/7” value is given as 2.6–4.1 folds. Besides, the “overexpression” value with BAX [4] is reported as 2.3–3.3 folds.

On to `CCOC(=O)c1ccc(NC(=O)C2(OC(=O)c3ccccc3C)CCCCC2)cc1` [Compound 9, 1-((4-(Ethoxycarbonyl)phenyl)carbamoyl)cyclohexyl-2-methylbenzoate], for which the half-inhibitory concentration (IC50) was 440 ± 6 nM in the assay on MCF-7 (setting [9]), 445 ± 4 nM in the assay on MDA-MB 231 and 608 ± 12 nM with Wi-38.

Consider `CCOC(=O)c1ccc(NC(=O)C2(OC(=O)c3ccc(N=[N+]=[N-])cc3)CCCCC2)cc1` [Compound 10, 1-((4-(Ethoxycarbonyl)phenyl)carbamoyl)cyclohexyl-4-azidobenzoate], for which the results for the 50% inhibitory concentration (IC50) in the assay with MCF-7 (setting [9]), with MDA-MB 231 and in the assay on Wi-38 were 439 ± 5 nM, 470 ± 12 nM and 505 ± 1 nM, respectively.

Take `CCOC(=O)c1ccc(NC(=O)C2(OC(=O)c3ccc([N+](=O)[O-])cc3)CCCCC2)cc1` [Compound 11, 1-((4-(Ethoxycarbonyl)phenyl)carbamoyl)cyclohexyl 4-nitrobenzoate]: the IC50 with MCF-7 (setting [9]) is 591 ± 35 nM; in the assay on MDA-MB 231, 756 ± 175 nM; in the assay on Wi-38, 516 ± 11 nM.

With `CCOC(=O)c1ccc(NC(=O)C2(OC(=O)c3ccc(NS(=O)(=O)c4ccccc4)cc3)CCCCC2)cc1` [Compound 12, 1-((4-(Ethoxycarbonyl)phenyl)carbamoyl)cyclohexyl-4-(phenylsulfonamido)benzoate], the “Relative fold change in Bcl-2 expression” value in the assay on Bcl-2 [5] worked out at 0.376 ± 0.037 fold; in the assay on Bcl-2 [1], 0.129 ± 0.0027 fold. Further, the “diminished levels of Bcl-2” value in the assay with Bcl-2 [1] is reported as 0.13–0.49 folds. In addition, the figures for the “Relative fold change in the P53 expression” value with P53 [2] and in the assay on P53 [7] were 5.168 ± 0.0676 fold and 4.312 ± 0.075 fold, respectively. In addition, the IC50 in the assay on MCF-7 (setting [9]) amounted to 65 ± 50 nM; with MDA-MB 231, 135 nM; in the assay with Wi-38 it was 633 ± 1 nM. The figures for the “Relative fold change in BAX expression” value in the assay on BAX [6] and in the assay with BAX [4] were 2.683 ± 0.065 fold and 3.337 ± 0.1485 fold, respectively. Besides, the entries for the “Relative fold activation of caspase 3/7” value in the assay on caspase 3/7 [3] and with caspase 3/7 [8] were 4.105 ± 0.0795 fold and 3.304 ± 0.0745 fold, respectively. Moreover, in the assay on caspase 3/7 [3], the “activation of caspase 3/7” value is reported as 2.6–4.1 folds. Moreover, the “overexpression” value in the assay with BAX [4] is 2.3–3.3 folds.

Take `CCOC(=O)c1ccc(NC(=O)C2(OC(=O)CNS(=O)(=O)c3ccccc3)CCCCC2)cc1` [Compound 13, Ethyl 4-(1-(2-(phenylsulfonamido)acetoxy)cyclohexanecarboxamido)benzoate]: the IC50 is 142 ± 27 nM with MCF-7 (setting [9]), 513 ± 66 nM in the assay on MDA-MB 231 and 590 ± 26 nM in the assay with Wi-38.

On to `O=C(O)OC1(C(=O)Nc2ccc(C(=O)O)cc2)CCCCC1` [Compound 15, 4-(1-(Carboxyoxy)cyclohexane-1-carboxamido)benzoic acid], for which the IC50 in the assay on MCF-7 (setting [9]) amounted to 264 ± 159 nM; in the assay on MDA-MB 231 it was 261 ± 25 nM; in the assay on Wi-38, 827 ± 4 nM.

As to `NNC(=O)c1ccc(NC(=O)C2(O)CCCCC2)cc1` [Compound 16, N-(4-(Hydrazinecarbonyl)phenyl)-1-hydroxycyclohexane-1-carboxamide], the 50% inhibitory concentration (IC50) came to 968 ± 36 nM with MCF-7 (setting [9]), 1030 ± 36 nM in the assay on MDA-MB 231 and 3327 ± 32 nM in the assay with Wi-38.

`O=C(NNC(=S)Nc1ccccc1)c1ccc(NC(=O)C2(O)CCCCC2)cc1` [Compound 17, 1-Hydroxy-N-(4-(2-(phenylcarbamothioyl)hydrazine-1-carbonyl)phenyl)cyclohexane-1-carboxamide]: in the assay on Bcl-2 [1], the “Relative fold change in Bcl-2 expression” value is 0.201 ± 0.0075 fold and the “diminished levels of Bcl-2” value is 0.13–0.49 folds. The “Relative fold change in the P53 expression” value with P53 [2] worked out at 4.377 ± 0.144 fold. Besides, the IC50 in the assay on MCF-7 (setting [9]) is around 80 nM. The half-inhibitory concentration (IC50) in the assay with MCF-7 (setting [10]) was 82 ± 2 nM. The 50% inhibitory concentration (IC50) in the assay with MDA-MB 231 came to 518 ± 81 nM. The IC50 in the assay on Wi-38 was 1540 ± 122 nM. In the assay on caspase 3/7 [3], the “Relative fold activation of caspase 3/7” value came out at 3.677 ± 0.0145 fold and the “activation of caspase 3/7” value was 2.6–4.1 folds. Moreover, in the assay with BAX [4], the “Relative fold change in BAX expression” value is 3.042 ± 0.0365 fold and the “overexpression” value is recorded as 2.3–3.3 folds.

Take `COc1cccc2c1C(=O)c1c(O)c3c(c(O)c1C2=O)C[C@@](O)(C(=O)CO)C[C@@H]3O[C@H]1C[C@H](N)[C@H](O)[C@H](C)O1` [Doxorubicin, reference compound]: the “Relative fold change in Bcl-2 expression” value is reported as 0.798 ± 0.044 fold with Bcl-2 [5] and 0.592 ± 0.031 fold in the assay on Bcl-2 [1]. For the same compound, the “Relative fold change in the P53 expression” value with P53 [2] amounted to 2.148 ± 0.174 fold; with P53 [2] (listed as doxorubicin) it was 2.1 fold; with P53 [7], 1.623 ± 0.122 fold; with P53 [7] (listed as doxorubicin) it was 1.6 fold. For the same compound, the results for the IC50 with MCF-7 (setting [9]), in the assay with MDA-MB 231 and with Wi-38 were 478 ± 76 nM, 2830 ± 173 nM and 272 ± 53 nM, respectively. Also, the “Relative fold change in BAX expression” value in the assay with BAX [6] is 1.232 ± 0.019 fold; in the assay with BAX [4], 1.556 ± 0.054 fold. Besides, the figures for the “Relative fold activation of caspase 3/7” value in the assay on caspase 3/7 [3] and in the assay on caspase 3/7 [8] were 1.881 ± 0.028 fold and 1.272 ± 0.074 fold, respectively.

What is called IC50 is the concentration that inhibits the measured activity by half.
